The record followed here is patent US20220388964A1 (HiberCell, Inc., priority 2019, published 2022).

SMILES strings stand for the structures. Bounds are passed on as bounds.

The first experiment deals with GCN2 (Homo sapiens, UniProt Q9P2K8). Briefly: TR-FRET biochemical assay for inhibition of GCN2 (Example 106, for Example 1-4BB). Conditions: Table 8. (TR-FRET usually uses a lanthanide donor and a delayed reading to cut background.)
Chain of GCN2 (Q9P2K8 whole entry): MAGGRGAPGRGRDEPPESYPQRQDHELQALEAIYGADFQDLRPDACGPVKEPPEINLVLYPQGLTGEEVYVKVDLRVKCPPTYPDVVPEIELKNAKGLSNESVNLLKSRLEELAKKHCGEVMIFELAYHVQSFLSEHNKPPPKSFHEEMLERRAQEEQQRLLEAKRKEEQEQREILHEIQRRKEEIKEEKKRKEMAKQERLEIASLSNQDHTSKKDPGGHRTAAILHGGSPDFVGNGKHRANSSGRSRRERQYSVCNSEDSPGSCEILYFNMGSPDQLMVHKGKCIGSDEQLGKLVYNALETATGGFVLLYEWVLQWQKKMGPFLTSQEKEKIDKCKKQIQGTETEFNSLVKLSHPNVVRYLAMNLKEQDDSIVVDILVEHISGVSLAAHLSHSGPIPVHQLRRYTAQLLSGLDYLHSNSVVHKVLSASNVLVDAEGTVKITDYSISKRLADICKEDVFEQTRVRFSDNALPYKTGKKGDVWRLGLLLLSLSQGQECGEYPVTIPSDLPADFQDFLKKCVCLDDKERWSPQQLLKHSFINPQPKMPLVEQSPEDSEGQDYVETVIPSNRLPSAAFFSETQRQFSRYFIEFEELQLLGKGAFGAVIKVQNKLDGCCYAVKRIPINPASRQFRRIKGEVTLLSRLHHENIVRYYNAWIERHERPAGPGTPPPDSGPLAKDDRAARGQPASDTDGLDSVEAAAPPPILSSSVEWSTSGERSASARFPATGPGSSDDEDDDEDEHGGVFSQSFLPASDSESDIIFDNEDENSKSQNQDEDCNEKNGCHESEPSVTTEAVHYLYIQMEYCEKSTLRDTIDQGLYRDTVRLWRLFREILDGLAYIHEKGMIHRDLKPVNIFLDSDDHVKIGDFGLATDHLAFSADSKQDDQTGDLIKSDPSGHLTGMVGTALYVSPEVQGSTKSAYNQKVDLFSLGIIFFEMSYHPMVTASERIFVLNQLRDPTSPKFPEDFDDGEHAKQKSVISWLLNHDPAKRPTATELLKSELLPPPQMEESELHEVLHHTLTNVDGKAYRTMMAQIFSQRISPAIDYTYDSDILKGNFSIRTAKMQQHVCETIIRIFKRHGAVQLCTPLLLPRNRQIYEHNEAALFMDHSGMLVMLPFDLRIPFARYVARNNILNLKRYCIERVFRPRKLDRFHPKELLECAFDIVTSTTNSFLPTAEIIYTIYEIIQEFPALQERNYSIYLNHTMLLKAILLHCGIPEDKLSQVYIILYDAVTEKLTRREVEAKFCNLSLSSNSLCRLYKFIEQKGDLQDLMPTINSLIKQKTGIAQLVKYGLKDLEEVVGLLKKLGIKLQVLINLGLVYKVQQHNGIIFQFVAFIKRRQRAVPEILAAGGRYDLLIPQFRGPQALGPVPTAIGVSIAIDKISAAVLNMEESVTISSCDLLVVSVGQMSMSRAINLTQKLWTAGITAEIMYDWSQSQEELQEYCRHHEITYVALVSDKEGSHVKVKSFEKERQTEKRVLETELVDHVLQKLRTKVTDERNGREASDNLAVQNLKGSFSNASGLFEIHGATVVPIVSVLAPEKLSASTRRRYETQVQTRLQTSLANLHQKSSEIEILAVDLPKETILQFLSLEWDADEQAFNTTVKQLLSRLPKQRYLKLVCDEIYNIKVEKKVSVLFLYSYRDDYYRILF
Broadly, the IC50 is the concentration needed to halve the response being measured. Low values mean inhibition by little substance, high ones a need for much substance. `Cn1ncc(S(=O)(=O)Nc2ccc(F)c(-c3ccc4c(-c5ncc[nH]5)n[nH]c4c3F)c2F)n1` [Example 2Y, N-(2,4-difluoro-3-(7-fluoro-3-(1H-imidazol-2-yl)-1H-indazol-6-yl)phenyl)-2-methyl-2H-l,2,3-triazole-4-sulfonamide] gave an IC50 of 2500 to 10000 nM.

For the molecule `Cn1cc(S(=O)(=O)Nc2ccc(F)c(-c3ccc4c(-c5ncc[nH]5)n[nH]c4c3F)c2F)nn1` [Example 2W, N-(2,4-difluoro-3-(7-fluoro-3-(1H-imidazol-2-yl)-1H-indazol-6-yl)phenyl)-1-methyl-1H-1,2,3-triazole-4-sulfonamide], the IC50 was in the range of 2500 to 10000 nM.

In turn, `Cn1cc(Cl)cc(S(=O)(=O)Nc2ccc(F)c(-c3ccc4c(-c5ncc[nH]5)n[nH]c4c3F)c2F)c1=O` [Example 2AN, 5-chloro-N-(2,4-difluoro-3-(7-fluoro-3-(1H-imidazol-2-yl)-1H-indazol-6-yl)phenyl)-1-methyl-2-oxo-1,2-dihydro-pyridine-3-sulfonamide] had an IC50 of less than 500 nM.

Take `O=S(=O)(Nc1ccc(F)c(-c2ccc3c(-c4ncc[nH]4)n[nH]c3c2F)c1F)c1cccc(F)c1F` [Example 2AG, N-(2,4-difluoro-3-(7-fluoro-3-(1H-imidazol-2-yl)-1H-indazol-6-yl)phenyl)-2,3-difluorobenzenesulfonamide]: the IC50 is less than 500 nM.

For the molecule `COc1ncc(Cl)cc1S(=O)(=O)Nc1ccc(F)c(-c2ccc3c(-c4ccn[nH]4)n[nH]c3c2F)c1F` [Example 2BZ, 5-chloro-N-(2,4-difluoro-3-(7-fluoro-3-(1H-pyrazol-5-yl)-1H-indazol-6-yl)phenyl)-2-methoxypyridine-3-sulfonamide], the IC50 was less than 500 nM.

In turn, `COc1cccc(S(=O)(=O)Nc2ccc(F)c(-c3ccc4c(-c5ncc[nH]5)n[nH]c4c3F)c2F)c1C` [Example 2AR, N-(2,4-difluoro-3-(7-fluoro-3-(1H-imidazol-2-yl)-1H-indazol-6-yl)phenyl)-3-methoxy-2-methylbenzene-sulfonamide] came in with an IC50 of 500 to 2500 nM.

For the molecule `COc1ncc(Cl)cc1S(=O)(=O)Nc1ccc(F)c(-c2ccc3c(C(=O)NC(C)C)n[nH]c3c2F)c1F` [Example 2CK, 6-(3-((5-chloro-2-methoxy-pyridine)-3-sulfonamido)-2,6-difluorophenyl)-7-fluoro-N-isopropyl-1H-indazole-3-carboxamide], the IC50 was less than 500 nM.

As for `COc1ncc(Cl)cc1S(=O)(=O)Nc1ccc(F)c(-c2ccc3c(-c4ncc[nH]4)n[nH]c3c2F)c1Cl` [Example 2T, 5-chloro-N-(2-chloro-4-fluoro-3-(7-fluoro-3-(1H-imidazol-2-yl)-1H-indazol-6-yl)phenyl)-2-methoxypyridine-3-sulfonamide], the IC50 is less than 500 nM.

For `Cc1nn(C)cc1S(=O)(=O)Nc1cccc(-c2ccc3c(-c4ncc[nH]4)n[nH]c3c2F)c1F` [Example 2N, N-(2-fluoro-3-(7-fluoro-3-(1H-imidazol-2-yl)-1H-indazol-6-yl)phenyl)-1,3-dimethyl-1H-pyrazole-4-sulfonamide], the half-maximal inhibitory concentration (IC50) is 2500 to 10000 nM.

`Cc1n[nH]c2cc(-c3c(F)ccc(NS(=O)(=O)c4cc(F)ccc4F)c3F)ccc12` [Example 2CC, N-(2,4-difluoro-3-(3-methyl-1H-indazol-6-yl)phenyl)-2,5-difluorobenzenesulfonamide]: the IC50 fell in the range of 2500 to 10000 nM.

`Cc1ccc(F)cc1S(=O)(=O)Nc1ccc(F)c(-c2ccc3c(-c4ncc[nH]4)n[nH]c3c2F)c1F` [Example 2BJ, N-(2,4-difluoro-3-(7-fluoro-3-(1H-imidazol-2-yl)-1H-indazol-6-yl)phenyl)-5-fluoro-2-methylbenzenesulfonamide] came in with a half-inhibitory concentration (IC50) of less than 500 nM.

As for `O=S(=O)(Nc1ccc(F)c(-c2ccc3c(-c4ncc[nH]4)n[nH]c3c2F)c1F)c1cccnc1` [Example 2CO, N-(2,4-difluoro-3-(7-fluoro-3-(1H-imidazol-2-yl)-1H-indazol-6-yl)phenyl)pyridine-3-sulfonamide], the IC50 fell in the range of 2500 to 10000 nM.

`O=S(=O)(Nc1ccc(F)c(-c2ccc3c(-c4ncc[nH]4)n[nH]c3c2F)c1F)c1ccccc1` [Example 2BV, N-(2,4-difluoro-3-(7-fluoro-3-(1H-imidazol-2-yl)-1H-indazol-6-yl)phenyl)benzene-sulfonamide] had an IC50 of 500 to 2500 nM.

`COc1ncc(Cl)cc1S(=O)(=O)Nc1ccc(F)c(-c2ccc3c(N)n[nH]c3c2F)c1F` [Example 7, N-(3-(3-Amino-7-fluoro-1H-indazol-6-yl)-2,4-difluorophenyl)-5-chloro-2-methoxypyridine-3-sulfonamide] showed an IC50 of 500 to 2500 nM.

The molecule `COc1ncc(Cl)cc1S(=O)(=O)Nc1ccc(F)c(-c2ccc3c(C(=O)N(C)C)n[nH]c3c2F)c1F` [Example 2AS, 6-(3-((5-chloro-2-methoxy-pyridine)-3-sulfonamido)-2,6-difluorophenyl)-7-fluoro-N,N-dimethyl-1H-indazole-3-carboxamide] had an IC50 of 500 to 2500 nM.

The experiment is the same for the next values; noted with them: Table 9.
`NC(=O)c1n[nH]c2c(F)c(-c3c(F)ccc(NS(=O)(=O)c4cccn5ccnc45)c3F)ccc12` [Example 3AA, 6-(2,6-difluoro-3-(imidazo-[1,2-a]pyridine-8-sulfon-amido)phenyl)-7-fluoro-1H-indazole-3-carboxamide] yielded a concentration for half-maximal inhibition (IC50) of 2500 to 10000 nM.

`Cn1cc(NC(=O)c2n[nH]c3c(F)c(-c4c(F)ccc(NS(=O)(=O)c5cc(F)cc6c5CCC6O)c4F)ccc23)cn1` (stereo not shown) [Example 4AI] came in with an IC50 of less than 500 nM.

In turn, `COc1ncncc1S(=O)(=O)Nc1ccc(F)c(-c2ccc3c(C(=O)NCCCN(C)C)n[nH]c3c2F)c1F` [Example 3CM, 6-(2,6-difluoro-3-((4-methoxypyrimidine)-5-sulfonamido)phenyl)-N-(3-(dimethylamino)propyl)-7-fluoro-1H-indazole-3-carboxamide] gave an IC50 of more than 10000 nM.

For `COc1ncc(F)cc1S(=O)(=O)Nc1ccc(F)c(-c2ccc3c(C(=O)Nc4cnoc4)n[nH]c3c2F)c1F` [Example 3BN, 6-(2,6-difluoro-3-((5-fluoro-2-methoxypyridine)-3-sulfonamido)phenyl)-7-fluoro-N-(isoxazol-4-yl)-1H-indazole-3-carboxamide], the 50% inhibitory concentration (IC50) was less than 500 nM.

`COc1ncc(F)cc1S(=O)(=O)Nc1nccc(-c2ccc3c(C(N)=O)n[nH]c3c2F)c1F` [Example 3Q, 6-(3-fluoro-2-((5-fluoro-2-methoxypyridine)-3-sulfonamido)pyridin-4-yl)-7-fluoro-1H-indazole-3-carboxamide] yielded an IC50 of 500 to 2500 nM.

On to `COc1ncc(F)cc1S(=O)(=O)Nc1ccc(F)c(-c2ccc3c(C(=O)Nc4ccc(=O)n(C)c4)n[nH]c3c2F)c1F` [Example 3BP, 6-(2,6-difluoro-3-((5-fluoro-2-methoxypyridine)-3-sulfonamido)phenyl)-7-fluoro-N-(1-methyl-6-oxo-1,6-dihydropyridin-3-yl)-1H-indazole-3-carboxamide], for which the half-maximal inhibitory concentration (IC50) was less than 500 nM.

Molecule `COc1ncc(F)cc1S(=O)(=O)Nc1ccc(F)c(-c2ccc3c(C(=O)Nc4cn[nH]c4)n[nH]c3c2F)c1F` [Example 3BO, 6-(2,6-difluoro-3-((5-fluoro-2-methoxypyridine)-3-sulfonamido)phenyl)-7-fluoro-N-(1H-pyrazol-4-yl)-1H-indazole-3-carboxamide] had an IC50 of less than 500 nM.

On to `COc1ncc(Cl)cc1S(=O)(=O)Nc1cc(F)cc(-c2ncc3c(-c4ncc[nH]4)n[nH]c3c2F)c1F` [Example 36, 5-chloro-N-[2,5-difluoro-3-[7-fluoro-3-(1H-imidazol-2-yl)-1H-pyrazolo[4,3-c]pyridin-6-yl]phenyl]-2-methoxy-pyridine-3-sulfonamide], for which the IC50 is less than 500 nM.

`COc1ncc(Cl)cc1S(=O)(=O)Nc1ccc(F)c(-c2ccc3c(C(=O)Nc4cnn(C)c4)n[nH]c3c2F)c1F` [Example 3BQ, 6-(3-((5-chloro-2-methoxy-pyridine)-3-sulfonamido)-2,6-difluorophenyl)-7-fluoro-N-(1-methyl-1H-pyrazol-4-yl)-1H-indazole-3-carboxamide]: the 50% inhibitory concentration (IC50) lay within 500 to 2500 nM.

Turning to `COc1ncc(F)cc1S(=O)(=O)Nc1ccc(F)c(-c2ccc3c(C(=O)NCC(N)=O)n[nH]c3c2F)c1F` [Example 3AM, N-(2-amino-2-oxoethyl)-6-(2,6-difluoro-3-((5-fluoro-2-methoxypyridine)-3-sulfon-amido)phenyl)-7-fluoro-1H-indazole-3-carboxamide], the IC50 lay in the range of 500 to 2500 nM.

Consider `Cc1ncc(C#N)cc1S(=O)(=O)Nc1ccc(F)c(-c2ccc3c(-c4ncc[nH]4)n[nH]c3c2F)c1F` [Example 3I, 5-cyano-N-(2,4-difluoro-3-(7-fluoro-3-(1H-imidazol-2-yl)-1H-indazol-6-yl)phenyl)-2-methylpyridine-3-sulfonamide], for which the IC50 is less than 500 nM.

In the case of `COc1ncc(F)cc1S(=O)(=O)Nc1ccc(C#N)c(-c2ccc3c(C(N)=O)n[nH]c3c2F)c1F` [Example 3BR, 6-(6-cyano-2-fluoro-3-((5-fluoro-2-methoxypyridine)-3-sulfonamido)phenyl)-7-fluoro-1H-indazole-3-carboxamide], the concentration for half-maximal inhibition (IC50) is 500 to 2500 nM.

Consider `COc1ncc(F)cc1S(=O)(=O)Nc1ccc(F)c(-c2ccc3c(C(=O)NCC[C@H](O)CO)n[nH]c3c2F)c1F` [Example 3BE, 6-(2,6-difluoro-3-((5-fluoro-2-methoxypyridine)-3-sulfonamido)phenyl)-N-((S)-3,4-dihydroxybutyl)-7-fluoro-1H-indazole-3-carboxamide], for which the half-inhibitory concentration (IC50) is less than 500 nM.

Consider `COc1ncc(F)cc1S(=O)(=O)Nc1cc(F)cc(-c2ccc3c(C(N)=O)n[nH]c3c2F)c1F` [Example 3AQ, 6-(2,5-difluoro-3-((5-fluoro-2-methoxypyridine)-3-sulfon-amido)phenyl)-7-fluoro-1H-indazole-3-carboxamide], for which the IC50 is less than 500 nM.

In turn, `O=S(=O)(Nc1ncc(F)c(-c2ccc3c(-c4ncc[nH]4)n[nH]c3c2F)c1F)c1cc(F)ccc1F` [Example 3H, N-(3,5-difIuoro-4-(7-fluoro-3-(1H-imidazol-2-yl)-1H-indazol-6-yl)pyridin-2-yl)-2,5-difluorobenzene-sulfonamide] returned an IC50 of less than 500 nM.

`Cc1ccc(S(=O)(=O)Nc2ccc(F)c(-c3ccc4c(C(=O)Nc5cn[nH]c5)n[nH]c4c3F)c2F)c(C)n1` [Example 3DI, 6-(3-((2,6-dimethylpyridine)-3-sulfonamido)-2,6-difluoro-phenyl)-7-fluoro-N-(1H-pyrazol-4-yl)-1H-indazole-3-carboxamide] returned an IC50 of less than 500 nM.
